Reference: patent US20240385174A1, “METHOD FOR SCREENING SUBSTANCE THAT SUPPRESSES 4-METHYLACETOPHENONE ODOR, AND METHOD FOR SUPPRESSING 4-METHYL ACETOPHENONE ODOR” (AJINOMOTO CO., INC., priority 2022, published 2024)

Columns and labels:
OR5P3 = molecular target: T1, OR5P3 (Homo sapiens, UniProt Q8WZ94); experiment: Screening for OR5P3 antagonist (luciferase assay, 2-heptanone as receptor-activating substance); assay type: cell-based; conditions: inhibition of OR5P3 response to 2-heptanone (1000 μM); test substance 0.3-100 μM; HEK293T cells expressing OR5P3
T1 construct: host or cells: HEK293T
T1 sequence (Q8WZ94 with tags, fused parts or gaps): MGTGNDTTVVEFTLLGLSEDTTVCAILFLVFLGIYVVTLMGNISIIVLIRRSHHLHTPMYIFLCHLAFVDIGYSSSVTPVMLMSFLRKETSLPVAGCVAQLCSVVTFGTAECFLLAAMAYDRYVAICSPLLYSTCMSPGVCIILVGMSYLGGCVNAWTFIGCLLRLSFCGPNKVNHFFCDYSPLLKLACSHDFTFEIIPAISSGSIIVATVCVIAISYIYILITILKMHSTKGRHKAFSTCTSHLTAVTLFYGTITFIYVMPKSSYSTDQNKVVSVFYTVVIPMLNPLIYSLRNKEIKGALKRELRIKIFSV
Protocol: The expression vector mixture was allowed to stand for 20 minutes in a laminar flow cabinet and then added to HEK293T cells inoculated in 10-cm petri dishes the day before (2.5 to 3.5×10^6 cells/10-cm petri dish). After incubation for 5 hours in an incubator maintained at 37° C. and 5% CO2, the HEK293T cells were inoculated into each well of a 96-well plate (BD) in a volume of 100 μl (2.5×10^6 cells/ml), and cultured overnight in an incubator maintained at 37° C. and 5% CO2. […] As a control, the same procedure was performed by using the empty vector Rho-pME18S instead of the expression vector for human olfactory receptor in the expression vector mixture to obtain culture of the HEK293T cells transfected with the empty vector Rho-pME18S (hereinafter also referred to as the “control cells”).
The medium was removed from the culture of HEK293T cells expressing OR5P3 obtained in the section <1-2> mentioned above, and 60 μl of a mixed solution of a test substance and 2-heptanone (containing 100 μM test substance and 1000 μM 2-heptanone) or 60 μl of a 2-heptanone solution (containing 1000 μM 2-heptanone) was added to obtain a reaction solution. The solutions were prepared by dissolving the substances in CD293 (Life Technologies, Inc.). The cells were incubated in a CO2 incubator at 37° C. for 3 hours so that the firefly luciferase gene was sufficiently expressed in the cells. The value of luminescence derived from firefly luciferase in the cells was measured and designated as “Luc value”. The value of luminescence derived from firefly luciferase was measured by using Dual-Go™ Luciferase Assay System (Promega) according to the operation manual of the product.
Receptor response inhibition ratio of the test substance was calculated as follows. The Luc value (Y) in the cells not stimulated with 2-heptanone was subtracted from the Luc value (X) in the cells stimulated with 2-heptanone alone. Similarly, the Luc value (Y) in the cells not stimulated with 2-heptanone was subtracted from the Luc value (Z) in the cells stimulated with a mixture of 2-heptanone and the test substance. The receptor response inhibition ratio of the test substance was calculated in accordance with the following equation using the increase in value of luminescence caused by stimulation with 2-heptanone alone (X Y) as the standard. The experiment was performed in duplicate, and an average value was obtained.
The concentration of the test substance was 0.3, 1, 3, 10, 30, or 100 μM. The response of the receptor to 2-heptanone (1000 μM) in the presence of each concentration of the test substance was measured and represented as the relative response intensity based on the response intensity of the receptor to 2-heptanone (1000 μM) observed in the absence of the test substance, which was taken as 100%.

[1] = Test Example 3: sensory evaluation of citral-derived degradation odor-masking effect; assay type: in vivo; conditions: score 0 to 10 (0 normal sample, 5 normal:degraded 1:1, 10 degraded sample); 100 ppm citral aqueous solution stored at 44° C. for two weeks; added ppm: decadienal 0.002, nonadienal 0.002, 2-methylbenzenethiol 0.165, S-(2-methyl-3-furyl) ethanethioate 0.120, piperine 6.667, nootkatone 10.000, sclareol 16.667; average of two experts
Protocol: A 100 ppm citral aqueous solution (stored under refrigeration after preparation) was used as a normal sample. This solution was stored at 44° C. for two weeks to generate a degraded odor derived from citral, and was used as a degraded sample. Evaluation samples were prepared by adding each of the compounds shown in Table 5 to the degraded sample at the concentrations shown in the same.
The citral-derived degradation odor intensity was scored as 0 to 10 on the basis of the following evaluation criteria. […] On the basis of the citral-derived degradation odor intensity, the citral-derived degradation odor-masking effect was evaluated.
• 0: Citral-derived degradation odor intensity of the normal sample • 5: Citral-derived degradation odor intensity of a mixture of the normal sample and degraded sample (normal sample:degraded sample=1:1) • 10: Citral-derived degradation odor intensity of the degraded sample

[2] = Test Example 4: sensory evaluation of lemon-derived degradation odor-masking effect (single compounds); assay type: in vivo; conditions: score 0 to 10 (0 normal sample, 5 normal:degraded 1:1, 10 degraded sample); lemon beverage stored at 44° C. for 2 weeks; added ppm: decadienal 0.002, nonadienal 0.002, 2-methylbenzenethiol 0.165, S-(2-methyl-3-furyl) ethanethioate 0.120, piperine 6.667, nootkatone 10.000, sclareol 16.667; average of 2 experts
Protocol: A commercially available lemon beverage (Chelate Lemon W Lemon (Pokka Sapporo), stored under refrigeration after purchased) was used as a normal sample. This lemon beverage was stored at 44° C. for 2 weeks to generate a lemon-derived degradation odor and was used as a degraded sample. Evaluation samples were prepared by adding each of the compounds shown in Table 6 to the degraded sample at the concentrations shown in the same.
The lemon-derived degradation odor intensity was scored as 0 to 10 on the basis of the following evaluation criteria. […] On the basis of the lemon-derived degradation odor intensity, the lemon-derived degradation odor-masking effect was evaluated.
• 0: Lemon-derived degradation odor intensity of the normal sample • 5: Lemon-derived degradation odor intensity of a mixture of the normal sample and degraded sample (normal sample:degraded sample=1:1) • 10: Lemon-derived degradation odor intensity of the degraded sample

olfactory receptor OR5P3 = molecular target: T2, olfactory receptor OR5P3 (Homo sapiens, UniProt Q8WZ94); experiment: Luciferase reporter gene assay: response of human olfactory receptors to 4-methylacetophenone; assay type: cell-based
T2 construct: host or cells: HEK293T
T2 sequence (Q8WZ94 with tags, fused parts or gaps): T1 sequence (Q8WZ94 with tags, fused parts or gaps)
From the text: The genes for the 352 types of human olfactory receptors were purchased from TrueClone cDNA Clone Collection (OriGene). Fragments for subcloning of the 352 types of human olfactory receptor genes were amplified by PCR using primers designed on the basis of sequence information available in GenBank and the purchased human olfactory receptor genes as the templates. Each of the amplified fragments for subcloning of the genes was subcloned into the Rho-pME18S vector (K. Kajiya et al., Journal of Neuroscience. 15 Aug. 2001, 21 (16) 6018-6025) downstream of the Rho tag sequence using the EcoRI and XhoI sites to obtain 352 types of expression vectors for human olfactory receptors.
HEK293T cells expressing each of the 352 types of olfactory receptors were prepared by the following procedure. […]
The olfactory receptors expressed by HEK293T cells conjugate with Golf to activate adenylate cyclase, and thereby increase the amount of intracellular cAMP. In this example, the olfactory receptor response was measured by using a luciferase reporter gene assay, in which the increase in intracellular cAMP amount is monitored as an increase in firefly luciferase-derived luminescence. […] In addition, value of the luminescence derived from Renilla luciferase was used as an internal standard to correct errors caused by differences in gene transfer efficiency and cell number in each well. […]

SMILES | IC50 (OR5P3) | Evaluation score (citral-derived degradation odor intensity) [1] | Evaluation score (lemon-derived degradation odor intensity) [2] | also measured
CCC=CC=CC=O [2,4-Heptadienal] | 78 µM |  |  | 
CC=C(C=O)c1ccccc1 [2-Phenyl-2-butenal] | 65 µM |  |  | 
CC(=O)c1ccc(C)cc1 [4-methylacetophenone] |  |  |  | response of olfactory receptor OR5P3 to 4-methylacetophenone (olfactory receptor activity) (olfactory receptor OR5P3; 300 μM and 30 μM 4-methylacetophenone, 352 types of human olfactory receptors expressed in HEK293T cells, FIGS. 1 and 2): OR5P3 showed a response; 4-methylacetophenone concentration dependency of the response of OR5P3 (fold increase) (olfactory receptor OR5P3; HEK293T cells expressing OR5P3, n=3, FIG. 3): concentration-dependent manner
CC=Cc1ccc(OCc2ccccc2)c(OC)c1 [Benzyl isoeugenol] | 49 µM |  |  | 
S=C=NCc1ccccc1 [Benzyl isothiocyanate] | 19 µM |  |  | 
C=C(C)[C@@H]1CCC2=CC(=O)C[C@@H](C)[C@]2(C)C1 [Nootkatone] | 8.1 µM | 5.5 | 6 | 
O=C(/C=C/C=C/c1ccc2c(c1)OCO2)N1CCCCC1 [Piperine] |  | 6 | 8 | 
CC(=O)Sc1ccoc1C [S-(2-Methyl-3-furyl) ethanethioate] | 45 µM | 6 | 6 | 
C=C[C@](C)(O)CC[C@@H]1[C@@]2(C)CCCC(C)(C)[C@@H]2CC[C@@]1(C)O [Sclareol] |  | 5.5 | 6 | 

Now from value to compound, other results behind:

IC50 (OR5P3) | Evaluation score (citral-derived degradation odor intensity) [1] | Evaluation score (lemon-derived degradation odor intensity) [2] | SMILES | also measured
67 µM |  |  | CC(C)CC(O)Cc1ccccc1 (centres unmarked) | 
46 µM | 8 | 8 | Cc1ccccc1S [2-Methylbenzenethiol] | 
17 µM |  |  | SCCc1ccccc1 [2-Phenylethanethiol] | 
39 µM |  |  | SCc1cccs1 [2-Thiophenemethanethiol] | 
76 µM |  |  | Sc1cccs1 [2-Thiophenethiol] | 
39 µM |  |  | c1coc(CSCc2ccco2)c1 [Difurfuryl sulfide] | 
2 µM |  |  | CCCCCCCCC(=O)NCc1ccc(O)c(OC)c1 [N-Vanillylnonanamide] | 
 | 5 | 6 | CCCCC/C=C/C=C/C=O [trans, trans-2,4-Decadienal] | 
 | 7 | 7.5 | CCCC/C=C/C=C/C=O [trans, trans-2,4-Nonadienal] | 
